Measured values as given in patent US20090247559A1 (Exelixis, Inc., priority 2007, published 2009).
Read-outs that look alike come from different tables or passages of the source.

Columns and labels:
[1] = target: PIM (PIM-1, PIM-2, and/or PIM-3); assay: PIM-1, PIM-2 and PIM-3 inhibition, biochemical chemiluminescence assays (Kinase Glo, IC50 determination); details: Table 1 activity class; PIM refers to PIM-1, PIM-2, and/or PIM-3; read-out: PIM IC50 (Activity B)
CDC7 = CDC7 (Homo sapiens, UniProt O00311); assay: CDC7 inhibition, biochemical chemiluminescence assay (Kinase Glo, IC50 determination)
CDC7, sequence (O00311 whole entry): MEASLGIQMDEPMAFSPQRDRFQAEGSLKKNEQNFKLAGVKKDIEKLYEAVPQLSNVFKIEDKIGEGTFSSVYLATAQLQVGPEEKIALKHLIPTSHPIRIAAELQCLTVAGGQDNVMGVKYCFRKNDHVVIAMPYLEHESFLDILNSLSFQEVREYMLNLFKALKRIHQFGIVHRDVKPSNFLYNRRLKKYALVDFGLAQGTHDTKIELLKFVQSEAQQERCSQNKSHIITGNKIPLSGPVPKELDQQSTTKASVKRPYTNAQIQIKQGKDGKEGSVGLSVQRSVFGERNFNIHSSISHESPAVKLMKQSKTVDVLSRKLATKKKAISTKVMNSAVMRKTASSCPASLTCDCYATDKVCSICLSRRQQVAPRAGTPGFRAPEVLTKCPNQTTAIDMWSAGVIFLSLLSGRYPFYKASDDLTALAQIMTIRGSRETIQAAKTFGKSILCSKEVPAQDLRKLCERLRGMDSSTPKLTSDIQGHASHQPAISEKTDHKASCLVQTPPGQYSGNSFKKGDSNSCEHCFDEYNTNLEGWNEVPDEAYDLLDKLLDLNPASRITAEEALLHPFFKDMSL
CDC7, sequence (Q9UBU7 whole entry partner): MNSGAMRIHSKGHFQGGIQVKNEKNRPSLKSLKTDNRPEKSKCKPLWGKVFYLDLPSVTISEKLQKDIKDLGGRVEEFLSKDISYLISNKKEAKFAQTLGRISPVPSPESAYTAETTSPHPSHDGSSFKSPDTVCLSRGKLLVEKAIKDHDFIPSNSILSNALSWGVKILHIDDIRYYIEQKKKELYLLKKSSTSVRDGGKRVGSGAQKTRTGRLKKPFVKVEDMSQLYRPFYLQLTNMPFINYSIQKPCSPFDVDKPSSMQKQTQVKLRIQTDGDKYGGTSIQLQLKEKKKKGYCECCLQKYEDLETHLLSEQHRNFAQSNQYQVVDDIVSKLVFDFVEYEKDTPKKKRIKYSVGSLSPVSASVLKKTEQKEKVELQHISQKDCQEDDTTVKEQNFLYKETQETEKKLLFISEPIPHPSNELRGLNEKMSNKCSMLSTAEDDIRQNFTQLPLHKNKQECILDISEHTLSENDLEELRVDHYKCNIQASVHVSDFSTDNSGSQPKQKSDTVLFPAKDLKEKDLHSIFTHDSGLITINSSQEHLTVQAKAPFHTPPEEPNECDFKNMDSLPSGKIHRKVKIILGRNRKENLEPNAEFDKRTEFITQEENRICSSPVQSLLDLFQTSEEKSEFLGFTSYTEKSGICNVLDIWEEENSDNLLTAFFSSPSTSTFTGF
How it was run: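 CDC7 enzyme preincubated with compound 10 min at ambient temperature, then ATP mix in Tris Base added; reaction 90 min at 24-27 °C. Remaining ATP quantified by Kinase Glo luminescence to give IC50.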

CK2 = CK2 (Homo sapiens, UniProt P68400); assay: CK2 inhibition, biochemical chemiluminescence holoenzyme assay (Kinase Glo, IC50 determination); details: Table 1 activity class; symbol given only if active; read-out: CK2 IC50 (Activity C)
CK2, sequence (P68400 whole entry): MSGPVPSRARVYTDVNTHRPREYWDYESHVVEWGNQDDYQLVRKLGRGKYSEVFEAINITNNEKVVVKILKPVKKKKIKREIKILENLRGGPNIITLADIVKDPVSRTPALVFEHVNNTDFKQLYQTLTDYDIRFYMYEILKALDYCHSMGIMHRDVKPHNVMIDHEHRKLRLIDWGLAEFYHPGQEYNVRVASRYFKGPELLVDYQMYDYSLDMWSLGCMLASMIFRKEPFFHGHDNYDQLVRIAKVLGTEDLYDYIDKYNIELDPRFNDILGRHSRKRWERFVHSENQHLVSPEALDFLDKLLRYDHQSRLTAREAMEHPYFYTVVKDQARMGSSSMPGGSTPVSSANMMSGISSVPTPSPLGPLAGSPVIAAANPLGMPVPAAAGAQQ
CK2, sequence (P67870 whole entry partner): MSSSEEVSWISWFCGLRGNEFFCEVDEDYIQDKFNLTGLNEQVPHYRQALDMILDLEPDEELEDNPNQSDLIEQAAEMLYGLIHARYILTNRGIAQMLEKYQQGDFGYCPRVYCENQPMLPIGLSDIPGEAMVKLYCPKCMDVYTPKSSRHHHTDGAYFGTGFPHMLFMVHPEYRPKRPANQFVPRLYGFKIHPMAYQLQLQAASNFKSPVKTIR
How it was run: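 Holoenzyme CK2 assay; compounds pre-incubated with substrate and enzyme, then reacted 150 min at 24-27° C. Remaining ATP measured as luminescence with Kinase Glo, and IC50 derived from the signal.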

[2] = Table 1 activity class, symbol given only if active, read-out: CDC7 IC50 (Activity A)
[3] = compounds in Table 1, read-out: CDC7 IC50 value

| SMILES | IC50 [1] [µM] | IC50 (CDC7; [2]) [µM] | IC50 (CDC7; [3]) [µM] | IC50 (CK2) [µM] | IC50 (CDC7; CDC7 IC50 (Activity A), Table 1 activity class, symbol given only if active) [µM] |
| --- | --- | --- | --- | --- | --- |
| O=c1[nH]c(CN2CC[C@H](O)C2)nc2c1oc1ccc3cn[nH]c3c12 [Compound 432, 9-{[(3S)-3-hydroxypyrrolidin-1-yl]methyl}-1H-pyrimido[4′,5′:4,5]furo[2,3-g]indazol-7(8H)-one] | < 10 | < 10 | < 0.1 | < 10 | – |
| Cc1cc2c(cc1[N+](=O)O)oc1c(=O)[nH]c(CN3CC[C@H](O)C3)nc12 [Compound 433, hydroxy(2-{[(3S)-3-hydroxypyrrolidin-1-yl]methyl}-8-methyl-4-oxo-3,4-dihydro[1]benzofuro[3,2-d]pyrimidin-7-yl)oxoammonium] | < 10 | < 10 | – | < 10 | – |
| Cc1cc(Br)cc2c1oc1c(=O)[nH]c(CN3CC[C@H](O)C3)nc12 [Compound 434, 8-bromo-2-{[(3S)-3-hydroxypyrrolidin-1-yl]methyl}-6-methyl[1]benzofuro[3,2-d]pyrimidin-4(3H)-one] | < 10 | < 10 | – | < 10 | – |
| CN1CCC(NCc2ccc(-c3nc4c(oc5ccc(Br)cc54)c(=O)[nH]3)c(Cl)c2)CC1 [Compound 435, 8-bromo-2-(2-chloro-4-{[(1-methylpiperidin-4-yl)amino]methyl}phenyl)[1]benzofuro[3,2-d]pyrimidin-4(3H)-one] | < 10 | < 10 | – | < 10 | – |
| CN1CCN(Cc2nc3c(oc4cc(O)c(Br)cc43)c(=O)[nH]2)CC1 [Compound 438, 8-bromo-7-hydroxy-2-[(4-methylpiperazin-1-yl)methyl][1]benzofuro[3,2-d]pyrimidin-4(3H)-one] | < 10 | < 10 | – | < 10 | – |
| Nc1ccc(C(=O)Nc2ccc(-c3nc4c(oc5ccc(Br)cc54)c(=O)[nH]3)c(Cl)c2)cn1 [Compound 439, 6-amino-N-[4-(8-bromo-4-oxo-3,4-dihydro[1]benzofuro[3,2-d]pyrimidin-2-yl)-3-chlorophenyl]pyridine-3-carboxamide] | < 10 | < 10 | – | < 10 | – |
| Cc1ccc2oc3c(=O)[nH]c(CN4CC[C@H](O)C4)nc3c2c1N [Compound 440, 9-amino-2-{[(3S)-3-hydroxypyrrolidin-1-yl]methyl}-8-methyl[1]benzofuro[3,2-d]pyrimidin-4(3H)-one] | < 10 | < 10 | – | < 10 | – |
| CSc1ccc2oc3c(=O)[nH]c(CN4CC[C@H](O)C4)nc3c2c1 [Compound 442, 2-{[(3S)-3-hydroxypyrrolidin-1-yl]methyl}-8-(methylthio)[1]benzofuro[3,2-d]pyrimidin-4(3H)-one] | < 10 | < 10 | < 0.1 | < 10 | – |
| O=c1[nH]c(CN2CC[C@H](O)C2)nc2c1oc1ccc(NCCc3cccc(Cl)c3)cc12 [Compound 444, 8-{[2-(3-chlorophenyl)ethyl]amino}-2-{[(3S)-3-hydroxypyrrolidin-1-yl]methyl}[1]benzofuro[3,2-d]pyrimidin-4(3H)-one] | < 10 | < 10 | – | < 10 | – |
| COc1c(Br)ccc2oc3c(=O)[nH]c(CN4CC[C@H](O)C4)nc3c12 [Compound 447, 8-bromo-2-{[(3S)-3-hydroxypyrrolidin-1-yl]methyl}-9-(methyloxy)[1]benzofuro[3,2-d]pyrimidin-4(3H)-one] | < 10 | < 10 | – | < 10 | – |
| COc1cccc2oc3c(=O)[nH]c(CN4CC[C@H](O)C4)nc3c12 [Compound 448, 2-{[(3S)-3-hydroxypyrrolidin-1-yl]methyl}-9-(methyloxy)[1]benzofuro[3,2-d]pyrimidin-4(3H)-one] | < 10 | < 10 | – | < 10 | – |
| COc1ccc2oc3c(=O)[nH]c(CN4CC[C@H](O)C4)nc3c2c1 [Compound 451, 2-{[(3S)-3-hydroxypyrrolidin-1-yl]methyl}-8-(methyloxy)[1]benzofuro[3,2-d]pyrimidin-4(3H)-one] | < 10 | < 10 | – | < 10 | – |
| O=c1c2oc3ccc(Br)cc3c2nc2n1CN1CCC[C@H]21 [Compound 452, (13bR)-11-bromo-1,2,3,13b-tetrahydro-7H-[1]benzofuro[3,2-d]pyrrolo[1′,2′:3,4]imidazo[1,5-a]pyrimidin-7-one] | < 10 | < 10 | < 0.1 | < 10 | – |
| O=c1c2oc3ccc(Br)cc3c2nc2n1CN1CCC[C@@H]21 [Compound 453, (13bS)-11-bromo-1,2,3,13b-tetrahydro-7H-[1]benzofuro[3,2-d]pyrrolo[1′,2′:3,4]imidazo[1,5-a]pyrimidin-7-one] | < 10 | < 10 | < 0.1 | < 10 | – |
| C#Cc1ccc2oc3c(=O)[nH]c(CN4CC[C@H](O)C4)nc3c2c1 [Compound 458, 8-ethynyl-2-{[(3S)-3-hydroxypyrrolidin-1-yl]methyl}[1]benzofuro[3,2-d]pyrimidin-4(3H)-one] | < 10 | < 10 | < 0.1 | < 10 | – |
| C[Si](C)(C)C#Cc1ccc2oc3c(=O)[nH]c(CN4CC[C@H](O)C4)nc3c2c1 [Compound 459, 2-{[(3S)-3-hydroxypyrrolidin-1-yl]methyl}-8-[(trimethylsilyl)ethynyl][1]benzofuro[3,2-d]pyrimidin-4(3H)-one] | < 10 | – | – | < 10 | < 10 |
| CCc1ccc2oc3c(=O)[nH]c(CN4CC[C@H](O)C4)nc3c2c1 [Compound 460, 8-ethyl-2-{[(3S)-3-hydroxypyrrolidin-1-yl]methyl}[1]benzofuro[3,2-d]pyrimidin-4(3H)-one] | < 10 | < 10 | – | < 10 | – |
| CC(C)COc1cccc2oc3c(=O)[nH]c(CN4CC[C@H](O)C4)nc3c12 [Compound 469, 2-{[(3S)-3-hydroxypyrrolidin-1-yl]methyl}-9-[(2-methylpropyl)oxy][1]benzofuro[3,2-d]pyrimidin-4(3H)-one] | < 10 | < 10 | – | < 10 | – |
| O=c1[nH]c([C@@H]2CCCN2)nc2c1oc1ccc(Br)cc12 [Compound 470, 8-bromo-2-[(2S)-pyrrolidin-2-yl][1]benzofuro[3,2-d]pyrimidin-4(3H)-one] | < 10 | < 10 | < 0.1 | < 10 | – |
| O=c1[nH]c([C@H]2CCCN2)nc2c1oc1ccc(Br)cc12 [Compound 471, 8-bromo-2-[(2R)-pyrrolidin-2-yl][1]benzofuro[3,2-d]pyrimidin-4(3H)-one] | < 10 | < 10 | < 0.1 | < 10 | – |
| O=c1[nH]c(CN2CC[C@H](O)C2)nc2c1oc1ccc3c(c12)OCO3 [Compound 476, 9-{[(3S)-3-hydroxypyrrolidin-1-yl]methyl}[1,3]dioxolo[4,5][1]benzofuro[3,2-d]pyrimidin-7(8H)-one] | < 10 | < 10 | < 0.1 | < 10 | – |
| O=c1[nH]c([C@@H]2C[C@@H](O)CN2)nc2c1oc1ccc(Br)cc12 [Compound 488, 8-bromo-2-[(2S,4R)-4-hydroxypyrrolidin-2-yl][1]benzofuro[3,2-d]pyrimidin-4(3H)-one] | < 10 | < 10 | < 0.1 | < 10 | – |
| N[C@@H](c1ccccc1)c1nc2c(oc3ccc(Br)cc32)c(=O)[nH]1 [Compound 489, 2-[(S)-amino(phenyl)methyl]-8-bromo[1]benzofuro[3,2-d]pyrimidin-4(3H)-one] | < 10 | < 10 | < 0.1 | < 10 | – |
| N[C@H](c1ccccc1)c1nc2c(oc3ccc(Br)cc32)c(=O)[nH]1 [Compound 490, 2-[(R)-amino(phenyl)methyl]-8-bromo[1]benzofuro[3,2-d]pyrimidin-4(3H)-one] | < 10 | < 10 | < 0.1 | < 10 | – |
| C[C@H](N)c1nc2c(oc3ccc(Br)cc32)c(=O)[nH]1 [Compound 492, 2-[(1S)-1-aminoethyl]-8-bromo[1]benzofuro[3,2-d]pyrimidin-4(3H)-one] | < 10 | < 10 | < 0.1 | < 10 | – |
| C[C@@H](N)c1nc2c(oc3ccc(Br)cc32)c(=O)[nH]1 [Compound 493, 2-[(1R)-1-aminoethyl]-8-bromo[1]benzofuro[3,2-d]pyrimidin-4(3H)-one] | < 10 | < 10 | < 0.1 | < 10 | – |
| CC(C)NCc1nc2c(oc3ccc(Br)cc32)c(=O)[nH]1 [Compound 496, 8-bromo-2-{[(1-methylethyl)amino]methyl}[1]benzofuro[3,2-d]pyrimidin-4(3H)-one] | < 10 | < 10 | < 0.1 | < 10 | – |
| C[C@H](O)c1nc2c(oc3ccc(Br)cc32)c(=O)[nH]1 [Compound 497, 8-bromo-2-[(1S)-1-hydroxyethyl][1]benzofuro[3,2-d]pyrimidin-4(3H)-one] | < 10 | < 10 | – | < 10 | – |
| O=c1[nH]c(CN2CC[C@H](CO)C2)nc2c1oc1ccc(Br)cc12 [Compound 498, 8-bromo-2-{[(3S)-3-(hydroxymethyl)pyrrolidin-1-yl]methyl}[1]benzofuro[3,2-d]pyrimidin-4(3H)-one] | < 10 | < 10 | < 0.1 | < 10 | – |
